Assay results taken from patent US6344180B1 (BioNebraska, Inc., priority 1999, dated 2002).
Ends that are not written are not given here.

Key:
[1] = system: insulin secretion and blood glucose; conditions: infusions in patients with type II diabetes; cited from earlier work
[2] = system: β-cell secretion; assay: Part three: combined glucose+GLP-1 injection vs hyperglycemic clamp with L-arginine, maximal secretory capacity; type: in vivo, human; conditions: for Incremental C-peptide response (peak minus concentration at time of injection) / Incremental insulin response (peak minus concentration at time of injection): hyperglycemic clamp 30 mmol/l, 5 g L-arginine bolus at 45 min; for Absolute mean peak C-peptide concentration / Absolute mean peak insulin concentration: hyperglycemic clamp with 5 g L-arginine
Description: (§1) The present study was divided into three parts.
(§2) Part one: Six type II diabetic patients (four men and two women, mean (range), age: 56 years (48-67 years); BMI: 31.1 kg/m^2 (27-38 kg/m^2); HbA1c; 9.6% (7,0-12.5%) ) and 6 healthy subjects individually matched for sex, age and BMI (age: 56 years (51-70 years); BMI: 31.6 kg/m^2 (26-37 kg/M^2); HbA1c: 5.5% (5.2-5.8%)). […] Part three 8 type II diabetic patients (seven men and one woman, age: 55 years (49-69 years); BMI: 30.9 kg/m^2 (27-35 kg/M^2); HbA1c: 7.6% (6.3-8.6%)) and 8 healthy subjects (age: 55 years (51-64 years); BMI 31.1 kg/m^2 (25-38 kg/m^2); HbA1c: 5.4% (5.0-6.0%)) participated. Four patients were treated with diet alone while four were treated with diet and oral antidiabetics (sulphonylureas and/or biguanides). […] All type II diabetic patients were diagnosed according to the criteria of National Diabetes Data Group. […] All agreed to participate after oral and written information.
(§3) All oral antidiabetics were discontinued 72 hours before the study.
During the hyperglycemic clamp, glucose (50% w/v) was injected at time zero to increase the plasma glucose to 30 mmol/l (calculated as follows: (30 mmol/l−fasting plasma glucose)×35 mg glucose×weight in kilogram). Plasma glucose was kept at 30 mmol/l by continuous infusion of glucose, which was adjusted according to a bedside measurement of plasma glucose ever 5 minutes. At 45 minutes, 5 g L-arginine monohydrochloride was injected as a bolus during 30 seconds. Blood was sampled 15, 10 and 0 minutes before and 5, 10, 15, 20, 25, 30, 35, 40, 45, 47, 48, 49, 51, 53, 55, 60, 65, 70, 75 and 90 minutes after elevation of plasma glucose. The L-arginine was dissolved in 50 ml of sterilized water and dispensed into glass ampoules and stored at 4° C. until the day of the experiment. Blood was sampled into fluoride tubes for measurement of glucose and into chilled EDTA tubes with aprotinin (500 KIU/ml blood; Trasylol, Bayer, Leverkusen, Germany) for peptide analyses. Tubes were immediately cooled on ice and centrifuged within 20 minutes at 4° C., and plasma was stored at −20° C. until analysis.
(§4) Plasma glucose concentrations were measured during the experiments using a glucose oxidase method with a Glucose Analyzer (Yellow Springs Instrument Model 23 A, USA). Plasma insulin concentrations were measured according to Albano et al using standards of human insulin and antibody code no. 2004. The sensitivity of the assay is approximately 3 pmol/l, the intraassay coefficient of variation is 8% at 48 pmol/l. C-peptide concentrations were determined by radioimmunoassay (RIA) as described by Heding et al employing the polyclonal antibody M1230[12]. […] The detection limit is approximately 60 pmol/l, the intra-assay coefficient of variance is 5%, interassay coefficient of variation is 7.3%. […] The assay has a detection limit of 5 pmol/l. […] The detection limit is 1 pmol/l.

[3] = system: β-cell secretion; assay: Part one: dose-response of I.V. bolus GLP-1 compared with glucagon test, peak plasma insulin and C-peptide; type: in vivo, human; conditions: glucagon test 1 mg I.V. bolus
Description: as §1, §2, §3
(§5) Meal test: Venous blood was drawn 15, 10 and 0 min before and 15, 30, 45, 60, 75, 90, 120, 150 and 180 minutes after ingestion of a standard breakfast meal. […] The peptide was dissolved in sterilized water containing 2% human serum albumin (Albumin Nordisk, Novo Nordisk, Bagsvaerd, Denmark, guaranteed to be free of hepatitis-B surface antigen and human immunodeficiency virus antibodies) and subjected to sterile filtration. Appropriate amounts of peptide for each experimental subject were dispensed into glass ampoules and stored frozen under sterile conditions until the day of the experiment. Part two: β-cell function was examined on 3 different days. […] Fifteen minutes later plasma glucose was elevated to 15 mmol/l by intravenous glucose (50% w/v) administration as described above.
as §4

[4] = system: β-cell secretion; assay: Part two: 2.5 nmol GLP-1, glucagon test, combined glucose+GLP-1 injection and s.c. GLP-1, peak plasma insulin and C-peptide; type: in vivo, human; conditions: glucagon test 1 mg I.V.
Description: as §1, §2, §3, §5, §4

[5] = system: pancreas; conditions: cited from earlier work

glucose-dependent insulinotropic polypeptide [GIP]
Effect on insulin secretion and blood glucose [1]: little or no effect

Cl.N=C(N)NCCC[C@H](N)C(=O)O [L-arginine, L-arginine monohydrochloride]
Incremental C-peptide response (peak minus concentration at time of injection) ([2]; healthy subjects): 3391 ± 388 pmol/L
Incremental insulin response (peak minus concentration at time of injection) ([2]; healthy subjects): 1921 ± 338 pmol/L
Incremental C-peptide response (peak minus concentration at time of injection) ([2]; type II diabetic patients): 1360 ± 250 pmol/L
Incremental insulin response (peak minus concentration at time of injection) ([2]; type II diabetic patients): 628 ± 226 pmol/L
Absolute mean peak C-peptide concentration ([2]; healthy subjects): 6047 ± 652 pmol/L
Absolute mean peak insulin concentration ([2]; healthy subjects): 2384 ± 452 pmol/L
Absolute mean peak C-peptide concentration ([2]; type II diabetic patients): 3043 ± 508 pmol/L
Absolute mean peak insulin concentration ([2]; type II diabetic patients): 816 ± 268 pmol/L

glucagon
Peak C-peptide concentration (mean ± SEM) ([3]; healthy controls): 1874 ± 158 pmol/L
Peak insulin concentration (mean ± SEM) ([3]; healthy controls): 360 ± 39 pmol/L
Peak C-peptide concentration (mean ± SEM) ([3]; type 2 diabetic patients): 1643 ± 178 pmol/L
Peak insulin concentration (mean ± SEM) ([3]; type 2 diabetic patients): 265 ± 45 pmol/L
Peak C-peptide concentration (mean ± SEM) ([4]; healthy controls): 1995 ± 99 pmol/L
Peak insulin concentration (mean ± SEM) ([4]; healthy controls): 420 ± 61 pmol/L
Peak C-peptide concentration (mean ± SEM) ([4]; type 2 diabetic patients): 1780 ± 160 pmol/L
Peak insulin concentration (mean ± SEM) ([4]; type 2 diabetic patients): 329 ± 50 pmol/L

Glu Gly Thr Phe Thr Ser Asp Val Ser Ser Tyr Leu Glu Gly Gln Ala Ala Lys Glu Phe Ile Ala Trp Leu Val Lys Gly Arg (NH2) (EGTFTSDVSSYLEGQAAKEFIAWLVKGR-NH2; listed as Homo sapiens) [SEQ. ID NO:6]
Stimulation of production or release of insulin from the pancreas [5]: do not stimulate

Glu Gly Thr Phe Thr Ser Asp Val Ser Ser Tyr Leu Glu Gly Gln Ala Ala Lys Glu Phe Ile Ala Trp Leu Val Lys Gly Arg Gly (EGTFTSDVSSYLEGQAAKEFIAWLVKGRG; listed as Homo sapiens) [SEQ. ID NO:5]
Stimulation of production or release of insulin from the pancreas [5]: do not stimulate
